Read-outs that look alike come from different tables or passages of the source.
Columns and labels:
[1] = Cytotoxicity on MT-2 cells (MTT); assay type: cell-based; details: human
Description: For each compound, cytotoxicity was evaluated on MT-2 cells. MT-2 cells were seeded at 3×10^4 cells/well in 96-well plates. […] After 5 days growth in a 37° C. incubator containing 5% CO2, MTT was added to a final concentration of 0.5 mg/ml and then incubated for four hours at 37° C. 10% SDS in 0.02 N HCl was added to lyse the cells overnight at 37° C. The plates were read on a Tecan Genius microplate reader at wavelengths of 570 nm/650 nm. The dose response curve was graphed by comparing the treated cells with the untreated control and the IC50 was determined for each compound.

[2] = tested on: reverse transcriptase of HIV NL4-3; assay: DHAdC viral mutagenicity, sense strand of RT fragment; assay type: cell-based; details: 50 μM
Description: The viral genomic DNA from cells treated with the deoxyribonucleoside analog 5-aza-dC (30 μM) was purified using a Qiagen DNeasy® Kit. 1 μg of genomic DNA was used to amplify a 1 kb region of the HIV-1 RT proviral DNA by PCR. The PCR product was then cloned into a TOPO® cloning vector. A Millipore Miniprep Kit was used to purify plasmid containing proviral inserts. About 45 positive clones were sequenced in both directions by a Beckman Coulter CEQ 8000. The sequencing results were analyzed and assembled using the DNASTAR Stagman program. Each mutated base was counted and the mutation rate was calculated over the total number of sequenced nucleotides.
Assessment of DHAdC viral mutagenicity was carried out as described above for 5-aza-dC. Mutagenesis of the sense strand of a 0.9 kb fragment of reverse transcriptase of HIV NL4-3 was determined after a single passage in SN1212 (50 μM) and compared to an untreated control.

[3] = tested on: HIV-1 LAI; assay: Treatment of HIV-1-infected MT-2 cells with nucleoside analogues, p24 ELISA; assay type: cell-based
Description: The strains of HIV-1 used for primary drug screening are HIV-1 LAI or the appropriate strain of NRTI resistant HIV for studies of cross-resistance. Virus was propagated on MT-2 cells at an multiplicity of infection (MOI) of 0.01 to generate virus stocks. Briefly, the MT-2 cells were suspended in RPMI 1640 media supplemented with 10% fetal bovine serum, streptomycin and penicillin (cRPMI) and grown in a 37° C. incubator containing 5% CO2. Serial dilution of the virus and infection of MT-2 cells were followed by an ELISA detecting the capsid protein of HIV-1 (p24) and used to determine the titer of the virus stocks (50% tissue culture infectious dose (TCID50)). The ELISA was performed according to the manufacturer's instructions. The MT-2 cells are also used for visualizing the cytopathic effects of HIV-1 growth (e.g. syncytia formation).
0.1 ml of a 3×10^5 cells/ml MT-2 cell suspension were seeded in 96-well plates at 3×10^4 cells/well. The compounds to be assayed were diluted in a separate 96-well at ten times (10×) the concentration needed for the screen. 22 μl of the 10× compounds was then added to the wells in triplicate except for six control wells, containing uninfected MT-2 cells alone (3 wells) and untreated HIV-infected MT-2 cells (3 wells). This was followed by the addition of HIV-1 at an MOI of 0.01, except for the three wells serving as the uninfected control. 0.1 ml of cRPMI was added to the uninfected well instead of virus. After the addition of virus, the 96-well plate was centrifuged at 1,200×g for two hours to enhance the adsorption of the virus by the MT-2 cells (see, e.g., O'Doherty, J. Virol. 74:10074-10080 (2000)). After the centrifugation step, the 96-well plate was then incubated in a 37° C. incubator containing 5% CO2 for three days. At the end of this time period the virus and cells were mixed by gentle pipetting followed by a 1 minute spin at 600×g to pellet the cells. The supernatant of each well was then serially diluted 1,000-fold into new 96-well plates to serve as inoculum for the next passage and assayed by ELISA for the amount of p24 produced. The next passage was performed as described above, except that the virus used to infect the cells was derived from the 1,000-fold dilution plate. To generate an EC50 value, half-log concentrations of mutagenic nucleoside or nucleotide analogue capable of eradicating virus in a single passage are tested as above to generate a dose-response curve.

[4] = tested on: HIV; assay: HIV infected SCID-Hu mice; assay type: in vivo
Description: After completion of this toxicology experiment, SN1212 was tested in HIV infected SCID-Hu mice. […] The discordance between viral infectivity and conventional surrogate markers of viral load, such as p24 or HIV RNA, is not surprising, as it has also been observed in vitro, and reflects the increased proportion of non-infectious viral particles in the presence of SN1212. It is also interesting to note that, of the treated groups, the immunologic profile of the SN1212 groups most closely resemble that of the uninfected group. This is compatible with the finding that infection with less “fit” viruses provides a relative clinical benefit by preserving cellular immunity.

Question: With NC1=NC(=O)N([C@H]2C[C@H](O)[C@@H](CO)O2)CN1 [DHAdC, 1-(2-Deoxy-β-D-ribofuranosyl)-4-amino-1,2,5,6-tetrahydro-1,3,5-triazin-2-one] as the compound, how does the IC50 at 5 days [1] read?
Answer: > 1000 µM

Question: And the “C⇄T transitions, fold enhancement” value [2]?
Answer: 4.6 fold

Question: What about the “mutation rate in HIV RT, fold higher than control” value [2] of the same compound?
Answer: 1.4 fold

Question: What about the “A→C C→A mutations” value ([2]; number of mutations) of the same compound?
Answer: 1

Question: What about the “A→T T→A mutations” value ([2]; number of mutations) of the same compound?
Answer: 1

Question: What about the “G→A A→G mutations” value ([2]; number of mutations) of the same compound?
Answer: 17

Question: And the “G→C C→G mutations” value ([2]; number of mutations)?
Answer: 3

Question: And the “G→T T→G mutations” value ([2]; number of mutations)?
Answer: 3

Question: And the “T→C C→T mutations” value ([2]; number of mutations)?
Answer: 12

Question: And the mutation rate % ([2]; single passage)?
Answer: 0.015%

Question: What about the “mutation rate in HIV RT” value ([2]; treated, control 0.0011) of the same compound?
Answer: 0.0015

Question: What about the EC50 ([3]; Human immunodeficiency virus 1, MT2, read-out: EC50 against HIV, against HIV, strain not stated, 'in the range of') of the same compound?
Answer: ~0.01 µM

Question: What about the EC50 ([3]; Human immunodeficiency virus 1, MT2, wild-type HIV strain LAI, MT-2 cells) of the same compound?
Answer: 3 µM

Question: And the “CD4+” value ([4]; 10 mg/kg/day)?
Answer: 13%

Question: And the “CD4+ CD8+” value ([4]; 10 mg/kg/day)?
Answer: 70%

Question: And the “CD8+” value ([4]; 10 mg/kg/day)?
Answer: 9.5%

Question: And the “HIV-1 RNA” value ([4]; 10 mg/kg/day)?
Answer: 5.3 log copies/10^6 cells

Question: What about the p24 ([4]; 10 mg/kg/day) of the same compound?
Answer: 510 pg/10^6 cells

Question: What about the Viral liter ([4]; 10 mg/kg/day, ** p < 0.05) of the same compound?
Answer: 15.2** viruses/10^6 cells

Question: And the “CD4+” value ([4]; 100 mg/kg/day)?
Answer: 10%

Question: What about the “CD4+ CD8+” value ([4]; 100 mg/kg/day) of the same compound?
Answer: 63%

Question: What about the “CD8+” value ([4]; 100 mg/kg/day) of the same compound?
Answer: 11%

Question: And the “HIV-1 RNA” value ([4]; 100 mg/kg/day)?
Answer: 5.1 log copies/10^6 cells

Question: What about the Viral liter ([4]; 100 mg/kg/day) of the same compound?
Answer: 24.9 viruses/10^6 cells

Question: What about the p24 ([4]; 100 mg/kg/day) of the same compound?
Answer: 570 pg/10^6 cells
